# pIC50: −log10 of the molar value. Read-outs that look alike come from different tables or passages of the source.
# Key:
# [1] = test system: ICR male or female mice; assay: Acute toxicity evaluation in mice, intravenous; format: in vivo, mouse; details: intravenous doses of 5 and 10 mg/kg, deaths recorded at 3, 24, 48 and 72 hours
# Protocol: Compound 20 was formulated in 5% dextrose in water (w/v)/PEG 400 (4:1 v/v) to a maximum concentration of 8 mg/mL. The solution was passed through a 0.8/0.2 micron filter before administration.
# ICR male or female mice weighing 20–22 g were maintained in a hygienic environment under controlled temperature (22–24° C.) and humidity (60–80%) with 12-hour light/dark cycles for at least one week. Free access to standard lab chow for mice and tap water was granted.
# Three mice/dose (5 and 10 mg/kg) were intravenously administered test compound. Animal deaths were recorded at 3, 24, 48 and 72 hours after treatment.
# [2] = target: T1, human serotonin 5-HT2A receptor (Homo sapiens, UniProt P28223); assay: Radioligand binding assay, human 5-HT2A receptors ([3H]Ketanserin); details: human 5-HT2a, Example 16 table
# T1 construct: expressed in transfected cells; host or cells: CHO-K1
# Protocol: (§1) The human 5-HT2a and 5-HT2b screens were conducted according to Bonhaus, D. W. et al. Br. J. Pharmacol. 1995, 115, 622. The human 5-HT2c screen was conducted according to Wolf, W. A. et al. J. Neurochem. 1997, 69, 1449. The human 5-HT6 screen was conducted according to Monsma, F. J. et al. Mol. Pharmacol. 1993, 43, 320.
# CHO-K1 cells stably transfected with a plasmid encoding the human serotonin 5-HT2A receptor were used to prepare membranes in modified Tris-HCl pH 7.7 buffer using standard techniques. […] Non-specific binding was estimated in the presence of 1 μM mianserin. […] See Bonhaus, D. W. et al. “The pharmacology and distribution of human 5-hydroxytryptamine2B (5-HT2B) receptor gene products: comparison with 5-HT2A and 5-HT2C receptors” Brit. J. Pharmacol. 115: 622–628, 1995; and Saucier, C and Albert, P. R. “Identification of an endogenous 5-hydroxytryptamine2A receptor in NIH-3T3 cells: agonist-induced down-regulation involves decreases in receptor RNA and number” J. Neurochem. 68: 1998–2011, 1997.
# (§2) The human 5-HT2a and 5-HT2b screens were conducted according to Bonhaus, D. W. et al. Br. J. Pharmacol. 1995, 115, 622. The human […], W. A. et al. J. Neurochem. 1997, 69, 1449. The human 5-HT6 screen was conducted according to Monsama, F. J. et al. Mol. Pharmacol. 1993, 43, 320. The assay to human D3 receptors was conducted according to Sokoloff, P. et al. Nature 1990, 347;146. The human dopamine transporter assay was conducted according to Gu, H. et. al. J. Biol. Chem. 1994, 269 (10);7124; and Giros, B. et al. Trends. Pharmacol. Sci. 1993, 14: 43. The human muscarinic M1–M4 screens were conducted according to Buckley N. J. et al. Mol. Pharmacol. 1989, 35:469.
# [3] = target: T2, human dopamine transporter (Homo sapiens, UniProt Q01959); assay: Binding to human dopamine transporter ([125I]RTI-55); details: for IC50: human, read-out: IC50 (nM) DAT
# T2 construct: expressed in transfected cells; host or cells: CHO-K1
# Protocol: CHO-K1 cell membranes stably transfected with a plasmid encoding the human dopamine transporter were prepared in modified Tris-HCl pH 7.4 buffer using standard techniques. […] Non-specific binding was estimated in the presence of 10 μM nomifensine. […] Trends. […]
# [4] = target: T3, human serotonin 5-HT6 receptor (Homo sapiens, UniProt P50406); assay: Radioligand binding assay, human 5-HT6 receptors ([3H]LSD)
# T3 construct: expressed in transfected cells; host or cells: HeLa/E6-7
# Protocol: as §1
# This assay measures binding of [^3H]LSD (lysergic acid diethylamide) to human serotonin 5-HT6 receptors. HeLa/E6–7 cells stably transfected with a plasmid encoding the human serotonin 5-HT6 receptor were used to prepare membranes in modified Tris-HCl pH 7.4 buffer using standard techniques. A 30 μg aliquot of membrane was incubated with 1.5 nM [^3H]LSD for 120 minutes at 37° C. Non-specific binding was estimated in the presence of 5 μM 5-HT. Membranes were filtered and washed 3 times and the filters were counted to determine [^3H]LSD specifically bound. See Monsma, Jr., F. J. et al. “Cloning and expression of a novel serotonin receptor with high affinity for tricyclic psychotropic drugs” Mol. Pharmacol. 43: 320–327, 1993.
# as §2
# [5] = target: T4, human serotonin 5-HT2B receptor (Homo sapiens, UniProt P41595); assay: Radioligand binding assay, human 5-HT2B receptors ([3H]LSD); details: for IC50: human 5-HT2b, Example 16 table, read-out: IC50 (nM) 5-HT2b
# T4 construct: expressed in transfected cells; host or cells: CHO-K1
# Protocol: This assay measures binding of [^3H]LSD to human serotonin 5-HT2B receptors. CHO-K1 cells stably transfected with a plasmid encoding the human serotonin 5-HT2B receptor were used to prepare membranes in modified Tris-HCl pH 7.4 buffer using standard techniques. […] Non-specific binding was estimated in the presence of 10 μM serotonin. Membranes were filtered and washed 3 times and the filters were counted to determine [^3H]LSD specifically bound. See Bonhaus, D. W. et al. “The pharmacology and distribution of human 5-hydroxytryptamine2B (5-HT2B) receptor gene products: comparison with 5-HT2A and 5-HT2C receptors” Brit.
# The human 5-HT2b screen was conducted according to Wolf, W. A. et al. J. Neurochem.
# [6] = target: T5, human dopamine D3 receptor (Homo sapiens, UniProt P35462); assay: Radioligand binding assay, human dopamine D3 receptors ([3H]Spiperone)
# T5 construct: expressed in transfected cells; host or cells: CHO
# Protocol: The assay for binding to human D3 receptors was conducted according to Sokoloff, P. et al. Nature 1990, 347, 146.
# CHO cells stably transfected with a plasmid encoding the human dopamine D3 receptor were used to prepare membranes in modified Tris-HCl pH 7.4 buffer using standard techniques. […] Non-specific binding was estimated in the presence of 25 μM S-(−)-sulpiride. […] See Sokoloff, P. et al. “Molecular cloning and characterization of a novel dopamine receptor (D3) as a target for neuroleptics” Nature 347: 146–151, 1990.
# as §2
# [7] = target: T6, human serotonin 5-HT2C receptor (Homo sapiens, UniProt P28335); assay: Radioligand binding assay, human 5-HT2C receptors ([3H]Mesulergine); details: human 5-HT2c, Example 16 table
# T6 construct: expressed in transfected cells; host or cells: CHO-K1
# T6 sequence (P28335 33-458): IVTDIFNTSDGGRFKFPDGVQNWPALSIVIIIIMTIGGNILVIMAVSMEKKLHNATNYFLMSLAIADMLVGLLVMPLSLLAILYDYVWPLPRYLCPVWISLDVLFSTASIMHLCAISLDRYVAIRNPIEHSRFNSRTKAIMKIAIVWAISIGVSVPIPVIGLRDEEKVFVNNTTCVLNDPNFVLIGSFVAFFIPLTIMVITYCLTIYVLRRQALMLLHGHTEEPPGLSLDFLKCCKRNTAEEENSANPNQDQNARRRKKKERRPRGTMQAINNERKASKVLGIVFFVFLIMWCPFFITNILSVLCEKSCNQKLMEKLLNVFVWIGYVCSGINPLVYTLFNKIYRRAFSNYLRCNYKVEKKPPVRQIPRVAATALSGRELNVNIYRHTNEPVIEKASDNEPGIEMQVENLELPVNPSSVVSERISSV
# Protocol: as §1
# CHO-K1 cells stably transfected with a plasmid encoding the human serotonin 5-HT2C receptor were used to prepare membranes in modified Tris-HCl pH 7.7 buffer using standard techniques. […] Non-specific binding was estimated in the presence of 1 μM mianserin. […] See Wolf, W. A. and Schutz, J. S. “The serotonin 5-HT2C receptor is a prominent serotonin receptor in basal ganglia: evidence from functional studies on serotonin-mediated phosphoinositide hydrolysis” J. Neurochem. 69: 1449–1458, 1997.
# as §2
# [8] = human 5-HT6, Example 16 table, read-out: IC50 (nM) 5-HT6
# [9] = Example 20 table, read-out: IC50 (nM) Against Human D3 Receptors
# [10] = IC50 (nM) 5-HT6, human 5-HT6, Example 16 table
# [11] = IC50 (nM) Against Human D3 Receptors, Example 20 table
# T5 sequence (P35462 whole entry): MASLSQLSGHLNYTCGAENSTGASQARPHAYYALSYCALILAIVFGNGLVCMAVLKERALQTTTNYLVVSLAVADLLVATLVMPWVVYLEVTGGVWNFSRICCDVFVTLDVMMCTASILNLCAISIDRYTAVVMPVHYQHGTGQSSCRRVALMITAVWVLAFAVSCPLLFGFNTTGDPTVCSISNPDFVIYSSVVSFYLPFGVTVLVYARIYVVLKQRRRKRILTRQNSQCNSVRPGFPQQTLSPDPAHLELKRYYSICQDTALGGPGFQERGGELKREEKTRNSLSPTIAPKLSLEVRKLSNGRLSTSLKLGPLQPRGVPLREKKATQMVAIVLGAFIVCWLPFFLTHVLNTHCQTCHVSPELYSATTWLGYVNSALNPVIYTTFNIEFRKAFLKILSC
# T3 sequence (P50406 whole entry): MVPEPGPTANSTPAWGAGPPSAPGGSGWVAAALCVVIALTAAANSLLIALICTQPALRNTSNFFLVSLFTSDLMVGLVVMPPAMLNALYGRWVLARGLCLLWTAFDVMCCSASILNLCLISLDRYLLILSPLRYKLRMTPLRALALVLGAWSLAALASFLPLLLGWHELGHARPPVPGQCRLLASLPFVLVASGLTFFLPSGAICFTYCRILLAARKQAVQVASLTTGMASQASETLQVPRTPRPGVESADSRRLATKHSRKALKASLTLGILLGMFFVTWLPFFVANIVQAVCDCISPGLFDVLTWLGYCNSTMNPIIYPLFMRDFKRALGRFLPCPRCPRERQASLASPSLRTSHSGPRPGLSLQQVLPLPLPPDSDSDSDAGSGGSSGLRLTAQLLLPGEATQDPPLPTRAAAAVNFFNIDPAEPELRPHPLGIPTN
# T4 sequence (P41595 whole entry): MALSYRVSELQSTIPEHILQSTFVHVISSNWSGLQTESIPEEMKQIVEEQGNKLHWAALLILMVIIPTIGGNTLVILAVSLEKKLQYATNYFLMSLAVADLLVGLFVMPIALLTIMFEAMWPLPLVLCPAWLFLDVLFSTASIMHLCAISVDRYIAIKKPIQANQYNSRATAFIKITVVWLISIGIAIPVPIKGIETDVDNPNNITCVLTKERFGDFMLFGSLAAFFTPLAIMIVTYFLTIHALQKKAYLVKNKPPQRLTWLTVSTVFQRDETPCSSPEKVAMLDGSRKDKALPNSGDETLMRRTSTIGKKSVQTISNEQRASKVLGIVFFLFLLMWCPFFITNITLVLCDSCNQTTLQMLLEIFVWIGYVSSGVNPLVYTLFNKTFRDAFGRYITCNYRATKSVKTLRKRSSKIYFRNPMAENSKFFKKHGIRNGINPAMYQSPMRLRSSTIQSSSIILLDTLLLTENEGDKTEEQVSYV
# T2 sequence (Q01959 whole entry): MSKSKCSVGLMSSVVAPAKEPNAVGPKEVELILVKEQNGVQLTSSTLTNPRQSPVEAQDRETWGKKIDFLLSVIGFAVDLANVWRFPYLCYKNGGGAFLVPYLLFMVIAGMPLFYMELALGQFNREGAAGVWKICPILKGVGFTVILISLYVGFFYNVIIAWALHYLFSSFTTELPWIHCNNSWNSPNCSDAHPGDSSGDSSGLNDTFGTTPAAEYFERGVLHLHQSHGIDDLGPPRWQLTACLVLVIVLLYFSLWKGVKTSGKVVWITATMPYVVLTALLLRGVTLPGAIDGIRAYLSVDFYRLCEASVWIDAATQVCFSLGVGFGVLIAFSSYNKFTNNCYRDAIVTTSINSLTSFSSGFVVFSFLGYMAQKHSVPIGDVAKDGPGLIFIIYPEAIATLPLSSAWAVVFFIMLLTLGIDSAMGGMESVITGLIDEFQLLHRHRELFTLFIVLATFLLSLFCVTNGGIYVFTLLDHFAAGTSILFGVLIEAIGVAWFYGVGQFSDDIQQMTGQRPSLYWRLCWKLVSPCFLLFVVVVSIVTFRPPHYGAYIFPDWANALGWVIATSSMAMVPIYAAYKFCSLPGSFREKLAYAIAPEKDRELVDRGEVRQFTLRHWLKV
# T1 sequence (P28223 whole entry): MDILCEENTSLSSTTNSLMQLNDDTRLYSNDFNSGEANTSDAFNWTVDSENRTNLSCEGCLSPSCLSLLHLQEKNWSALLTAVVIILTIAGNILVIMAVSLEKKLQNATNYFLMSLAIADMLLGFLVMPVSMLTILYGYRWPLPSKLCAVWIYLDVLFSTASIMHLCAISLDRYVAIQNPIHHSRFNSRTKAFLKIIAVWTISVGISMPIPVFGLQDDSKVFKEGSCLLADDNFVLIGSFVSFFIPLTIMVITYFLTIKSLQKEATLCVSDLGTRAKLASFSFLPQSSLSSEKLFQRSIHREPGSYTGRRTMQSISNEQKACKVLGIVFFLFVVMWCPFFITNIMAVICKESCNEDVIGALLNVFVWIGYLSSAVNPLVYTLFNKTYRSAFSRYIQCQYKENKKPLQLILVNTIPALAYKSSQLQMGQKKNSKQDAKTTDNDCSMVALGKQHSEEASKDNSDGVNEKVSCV
Structure (SMILES),IC50 ([2]; read-out: IC50 (nM) 5-HT2a),IC50 ([3]; Example 101 table),"IC50 [4, 8]",IC50 [5],"IC50 [6, 9]",IC50 ([7]; read-out: IC50 (nM) 5-HT2c),other results
"CCN(CC)CCCNc1nc(C2(c3ccc(Cl)cc3)CCC2)cs1.O=C(O)CC(O)(CC(=O)O)C(=O)O [Compound 20, N′-{4-[1-(4-chlorophenyl)cyclobutyl]thiazol-2-yl}-N,N-diethylpropane-1,3-diamine citrate salt]",,,,,,,Animal deaths [1]: no deaths were observed
"Clc1ccc(C2(c3csc(NCCN4CCOCC4)n3)CCC2)cc1 [Compound 22, {4-[1-(4-chlorophenyl)-cyclobutyl]thiazol-2-yl}-(2-morpholin-4-yl-ethyl)amine]",> 1000 nM,> 1000 nM,> 1000 nM,> 1000 nM,> 1000 nM,> 1000 nM,
"Clc1ccc(C2(c3csc(NCCN4CCCCC4)n3)CCC2)cc1 [Compound 23, {4-[1-(4-chlorophenyl)-cyclobutyl]thiazol-2-yl}-(2-piperidin-1-yl-ethyl)amine]",< 1000 nM,< 500 nM,> 1000 nM,< 1000 nM,< 1000 nM,< 100 nM,
"CN1CCCC1CCNc1nc(C2(c3ccc(Cl)cc3)CCC2)cs1 (stereo not shown) [Compound 24, {4-[1-(4-chlorophenyl)-cyclobutyl]thiazol-2-yl}-[2-(1-methylpyrrolidin-2-yl)ethyl]amine]",< 100 nM,< 500 nM,< 1000 nM,< 100 nM,< 1000 nM,< 10 nM,
"CCN1CCCC1CNc1nc(C2(c3ccc(Cl)cc3)CCC2)cs1 (stereo not shown) [Compound 25, {4-[1-(4-chlorophenyl)cyclobutyl]thiazol-2-yl}-(1-ethylpyrrolidin-2-ylmethyl)amine]",< 1000 nM,> 1000 nM,< 1000 nM,< 1000 nM,< 1000 nM,< 1000 nM,
"CN1CCCC1CCNc1nc(C2(c3ccc(Cl)cc3)CCC2)no1 (stereo not shown) [Compound 26, {3-[1-(4-Chlorophenyl)cyclobutyl]-[1,2,4]oxadiazol-5-yl}-[2-(1-methyl-pyrrolidin-2-yl)-ethyl]-amine]",,,,,,,"IC50 ([2]; IC50 (nM) 5-HT2a): > 1000 nM; pIC50 [3]: > 6.00; IC50 [4, 10]: > 1000 nM; pIC50 [5]: < 6.00; IC50 [6, 11]: > 1000 nM; IC50 ([7]; IC50 (nM) 5-HT2c): < 1000 nM"
"CN1CCN(c2nc(C3(c4ccc(Cl)cc4)CCC3)cs2)CC1 [Compound 27, 1-{4-[1-(4-chlorophenyl)cyclobutyl]thiazol-2-yl}-4-methylpiperazine]",< 1000 nM,< 500 nM,< 1000 nM,< 1000 nM,< 1000 nM,< 1000 nM,
"CN1CCN(c2nc(C3(c4ccc(Cl)cc4)CCC3)no2)CC1 [Compound 28, 1-{3-[1-(4-chlorophenyl)cyclobutyl]-[1,2,4]oxadiazol-5-yl}-4-methylpiperazine]",> 1000 nM,> 1000 nM,> 1000 nM,> 1000 nM,> 1000 nM,> 1000 nM,
"CN1CCN(c2nc(C3(c4ccc(Cl)cc4)CCOCC3)cs2)CC1 [Compound 29, 1-{4-[4-(4-chlorophenyl)tetrahydropyran-4-yl]-thiazol-2-yl}-4-methylpiperazine]",,,,,,,"IC50 ([2]; IC50 (nM) 5-HT2a): > 1000 nM; pIC50 [3]: > 6.00; IC50 [4, 10]: < 100 nM; pIC50 [5]: < 6.00; IC50 [6, 11]: < 1000 nM; IC50 ([7]; IC50 (nM) 5-HT2c): < 1000 nM"
CN1CCN(c2nc(CCc3ccc(Cl)cc3)cs2)CC1 [Compound 32],< 100 nM,> 1000 nM,> 1000 nM,< 1000 nM,> 1000 nM,< 100 nM,
CN1CCC(c2nc(C3(c4ccc(Cl)cc4)CCCCC3)cs2)CC1 [Compound 35],< 1000 nM,< 100 nM,< 1000 nM,< 1000 nM,< 100 nM,< 1000 nM,
COc1ccc(C2(c3csc(N4CCN(C)CC4)n3)CCOCC2)cc1OC [Compound 74],> 1000 nM,> 1000 nM,> 1000 nM,> 1000 nM,> 1000 nM,> 1000 nM,
CN1CCN(c2nc(C3(c4ccc(Cl)cc4)CCCC3)cs2)CC1 [Compound 85],> 1000 nM,< 100 nM,< 100 nM,< 1000 nM,< 1000 nM,< 1000 nM,
"CNC1CCN(c2nc(C3(c4ccccc4F)CCCCC3)cs2)C1 (stereo not shown) [Compound 134, (1-{4-[1-(2-fluorophenyl)-cyclohexyl]-thiazol-2-yl}-pyrrolidin-3-yl)-methyl-amine]",,,,,,,"IC50 ([3]; Example 100 table): > 1000 nM; IC50 ([4]; human, Example 100 table, read-out: IC50 (nM) 5-HT6): < 1000 nM; IC50 ([6]; human, Example 100 table, read-out: IC50 (nM) D3): > 1000 nM"

# From US7087623B2, “Thiazole and other heterocyclic ligands for mammalian dopamine, muscarinic and serotonin receptors and transporters, and methods of use thereof” (Sepracor Inc., priority 2001, dated 2006)
